Experimental data published in PubChem BioAssay (NCI).
Where “and” joins values, the source holds several entries; their conditions need not be identical. Equal entries are not always repeated.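 Tested at 5 concentrations; 48 h exposure; 96-well plates; endpoints linearly interpolated, else capped at highest concentration. The concentration for 50% growth inhibition is given as GI50. The concentration for full growth arrest is given as TGI.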

How the values were obtained:
Experiment in all cases: NCI-60 cell line screen, 48 h
SK-MEL-2 melanoma = tested on: SK-MEL-2 melanoma
KM12 colon = tested on: KM12 colon
NCI-H23 lung = tested on: NCI-H23 lung
HT29 colon = tested on: HT29 colon
CCRF-CEM leukemia = tested on: CCRF-CEM leukemia
MALME-3M melanoma = tested on: MALME-3M melanoma
T-47D breast = tested on: T-47D breast

Compound	GI50 (SK-MEL-2 melanoma) [µM]	TGI (SK-MEL-2 melanoma) [µM]	GI50 (KM12 colon) [µM]	TGI (KM12 colon) [µM]	GI50 (NCI-H23 lung) [µM]	TGI (NCI-H23 lung) [µM]	GI50 (HT29 colon) [µM]	TGI (HT29 colon) [µM]	GI50 (CCRF-CEM leukemia) [µM]	TGI (CCRF-CEM leukemia)	GI50 (MALME-3M melanoma) [µM]	TGI (MALME-3M melanoma)	GI50 (T-47D breast) [µM]	TGI (T-47D breast) [µM]
Cc1cc(N2CCCC2)nc(NCc2cc(Nc3ccnc4cc(Cl)ccc34)ccc2F)n1	1.74	3.31	1.52	3.01	1.3	3.63	0.286	1.23						
OCCNCCCOc1ccc2ncnc(Nc3ccc(Oc4cccc(C(F)(F)F)c4)c(Cl)c3)c2c1	1.7	3.38	1.77	3.26	1.63	3.13			1.66	4.42 µM	1.66	3.24 µM		
C[n+]1c(-c2ccc(/C=N/NC(=O)c3ccc(C(=O)N/N=C/c4ccc(-c5cn6ccccc6[n+]5C)cc4)cc3)cc2)cn2ccccc21	270	498	> 1000	> 1000	297	717	137	266	209	> 50 µM and 353 µM	208	> 85.6 µM and 422 µM	372	928
Cc1cc(C(=O)O)c(C)n1-c1cccc(C(=O)O)c1	> 100	> 100	> 100	> 100	> 100	> 100	> 100	> 100	> 100	> 100 µM	> 100	> 100 µM	> 100	> 100
O=C(O)CCc1c2ccc(=O)c(O)c-2oc2c(O)c(O)ccc12		> 100		> 100		> 100		> 100		13.8 µM		> 100 µM		> 100
Cn1c2ccccc2c2c3[nH][nH]c(=O)c3c3c4ccccc4[nH]c3c21	1.77	5.78	0.493	10.5	1.85	8.37	3.13	50.8	2.89	10.2 µM	5.24	29.6 µM	2.05	13.4
COc1cc(N2CCN(C(C)C)CC2)ccc1Nc1nc(Nc2cccc(F)c2C(=O)O)c2cc[nH]c2n1	> 25	> 25	> 25	> 25	> 25	> 25	> 25	> 25	> 25	> 25 µM	> 25	> 25 µM	> 25	> 25
CC(C)CC(Nc1c(O)ccc2ccccc12)C(=O)O (configuration not stated)		42.5		> 100		> 100		> 100		> 100 µM		39.2 µM		> 100
Cc1ccn2c(CCc3nnc4cc(C)ccn34)nnc2c1		> 100		> 100		> 100		> 100				> 100 µM		> 100
c1cncc(C2Nc3cccc4cccc(c34)N2)c1	30.9	64.4	30.8	97.7	77.6	> 100	31.8	> 100	22.6	> 100 µM	25.6	57.7 µM	2.62	9.29
CN1CCN(c2nc(NCCCNc3ccnc4cc(Cl)ccc34)c3ccccc3n2)CC1	3.18	9.09	4.02	16.1	10.6	24	3.33	9.87			1.98	3.84 µM	2.39	6.73
CC(=O)C1=C(C)N(C)C2(O)C=CC(=O)C3=C(O)c4ccccc4C(=O)C312 (configuration not stated)	30.6	> 100			5.21	46	24.1	> 100	1.92	> 100 µM	1.51	4.01 µM		
C/C(=N\NC(=S)N1CCCCCCCCCCCC1)c1ccccn1		1.27		1.52		2.81		1.04		1.76 µM		1.08 µM		1.25
N#Cc1c(N)nc(N)nc1N[C@H](c1nc2c(F)ccc(Cl)c2c(=O)n1-c1cccnc1)C1CC1	23.3	> 100	14.4	34.5	21.8	> 100	4.53	25.8	7.35	95.1 µM	10.9	> 100 µM	1.19	7.96
Nc1nc(N)c2c(n1)NC(c1ccccc1)C1CCc3ccccc3C1=N2 (configuration not stated)	3.48	14	4.07	14.9	4.56	19.4	3.66	14.4	4.47	> 100 µM	2.13	17.9 µM	4.57	25.6
Cc1[nH]c(-c2nc3ccccc3[nH]2)c(C)c1C(=O)NC(C)C1CCCCC1 (configuration not stated)	10.1	25.5	10.2	22.8	12.6	31.5	4.89	38.2	5.49	21.4 µM	5.68	22.5 µM	12.4	39.2
C/C(=N\NC(=S)N1CC2CCC(CC2)C1)c1cccc(C)n1		21.4		14.8		19.4	< 0.0001	11.4	0.000124		0.605	17.8 µM		20.6
Cc1cc2nc3cc(C)c(N)cc3[n+](-c3ccccc3)c2cc1N	6.74	47.1	2.07	17.6	2.77	> 63.5	7.3	> 100	11.2	> 100 µM	3.98	51.1 µM	1.8	19.9
NC(N)=Nc1nc2ccc([N+](=O)[O-])cc2[nH]1		> 100		> 100		> 100		> 100		> 100 µM		> 100 µM		> 100
COC1C(OC(=O)/C=C/C=C/C=C/C=C\C(=O)O)CCC2(CO2)C1C1(C)OC1CC=C(C)C (configuration not stated)	> 200	> 200	> 200	> 200	> 200	> 200	> 200	> 200	> 200	> 200 µM		> 200 µM	> 200	> 200
